**Q.** With `Nc1nnc(C(F)(F)C(Cl)Cl)o1` as the compound, how does the melting point read?
**A.** 171 °C

**Q.** Which melting point does the source give for `CN(C)C=C(C#N)C(=O)Nc1ccccc1Br` here?
**A.** 140 to 141 °C

**Q.** With `COc1ccc2ccc(C(N)=O)c(OC)c2c1` as the compound, how does the melting point read?
**A.** 134 to 136 °C

**Q.** Which melting point does the source give for `C[N+]([O-])=C(Cn1ccnc1)c1cccs1` here?
**A.** 162 to 164 °C

**Q.** For `CN(C)C(=O)c1cn(Cc2ccccc2Cl)nn1`, which melting point is on record?
**A.** 120 to 121 °C

**Q.** Which melting point does the source give for `CN1C(=O)NC(=O)C1O` (stereo unspecified) here?
**A.** 135 to 136 °C

**Q.** For `CC(=O)OCCN(C(=O)Cn1c(=O)n(C)c2nc(-c3ccccc3)ncc21)c1ccccc1`, which melting point is on record?
**A.** 158 to 160 °C

**Q.** With `N#CC1C(=O)NC(=O)C(C(=O)O)C12CCCCC2` (stereo unspecified) as the compound, how does the melting point read?
**A.** 210 to 214 °C

**Q.** For `CC(=O)N1c2ccc(-c3ccc(CN4CCCCC4)cc3)cc2C(Nc2ccc(F)cc2)CC1C` (stereo unspecified), which melting point is on record?
**A.** 106 °C

**Q.** With `COC(=O)c1ccc(NCc2cccc(F)c2)cc1` as the compound, how does the melting point read?
**A.** 107 to 110 °C

**Q.** For `CCOCC1(F)CCN(c2ccc(N3C[C@H](CNC(C)=O)OC3=O)cc2F)CC1`, which melting point is on record?
**A.** 109 to 111 °C

**Q.** With `C#CCOc1cc(C)nc(-c2cccc(CCC)n2)n1` as the compound, how does the melting point read?
**A.** 92.5 °C

**Q.** Which melting point does the source give for `O=C(N=C1SCCN1Cc1ccc(Cl)nc1)c1ccccc1` here?
**A.** 133 °C

**Q.** Which melting point does the source give for `CN(C)CCCNC(=S)Nc1ccccc1` here?
**A.** 112 to 114 °C

**Q.** For `COc1cc2c(cc1Nc1ncc(Cl)c(Nc3ccc(OC)c4c3C(=O)N(C)C4)n1)CCN(CC(=O)N(C)C)CC2`, which melting point is on record?
**A.** 202 to 203 °C

**Q.** With `COc1ccc(COc2cccc(C=C(C=O)C(C=O)=Cc3cccc(OCc4ccc(OC)cc4)c3)c2)cc1` as the compound, how does the melting point read?
**A.** 117 to 119 °C

**Q.** Which melting point does the source give for `CCCCOCCOc1ccc(-c2ccc3c(c2)C=C(C(=O)Nc2ccc(S(=O)Cc4nncn4CCCC)cc2)CCN3CC(C)C)cc1` (stereo unspecified) here?
**A.** 178 to 180 °C

**Q.** For `Cn1c(C(F)(F)F)cc(=O)n(-c2c(F)cc(Br)c(O)c2N)c1=O`, which melting point is on record?
**A.** 98 to 100 °C

**Q.** With `COc1cc([C@@H]2c3cc4c(cc3C=C[C@H]2C(=O)O)OCO4)cc(OC)c1OC` (relative stereo) as the compound, how does the melting point read?
**A.** 177 to 180 °C

**Q.** Which melting point does the source give for `Cc1nc2cccc(OCC(C)(C)C(=O)NCC(C)C)c2c(N)c1C(=O)O` here?
**A.** 176 to 179 °C

**Q.** For `COc1cc2c(cc1NN)oc1ccccc12`, which melting point is on record?
**A.** 113 to 115 °C

**Q.** With `CC(C)COC(=O)Nc1cc(F)c(C2=CCSCC2)c(F)c1` as the compound, how does the melting point read?
**A.** 136 to 137 °C

**Q.** With `COc1ccc2c(c1)c(C)c(CC(C)C(=O)O)n2Cc1ccc(Cl)cc1` (stereo unspecified) as the compound, how does the melting point read?
**A.** 128 °C

**Q.** Which melting point does the source give for `CCCN1CCC(C2=C(C#N)C(c3cccc4nonc34)c3c[nH]nc3N2)CC1` (stereo unspecified) here?
**A.** 246 °C

**Q.** With `CCOC(=O)N1CCN(c2ccc(Cl)nn2)CC1` as the compound, how does the melting point read?
**A.** 124 °C

**Q.** With `CC(c1ccc(F)cc1)N1CCC(n2cnc3ccccc3c2=O)CC1` (stereo unspecified) as the compound, how does the melting point read?
**A.** 179 to 180 °C

**Q.** Which melting point does the source give for `CSc1nc2cncnc2n1Cc1ccc(F)cc1` here?
**A.** 167 °C

**Q.** With `Cc1nc(CCCCCn2cnc3c2c(=O)n(C)c(=O)n3C)no1` as the compound, how does the melting point read?
**A.** 160 to 162 °C

**Q.** For `CC(=O)Nc1cccc(/C=C/C(=O)N2CC(CCl)c3ccc([N+](=O)[O-])cc32)c1` (stereo unspecified), which melting point is on record?
**A.** 229 to 230 °C

**Q.** Which melting point does the source give for `CC(=O)c1ccc(S(=O)(=O)NCCO)cc1` here?
**A.** 119 to 121 °C

**Q.** Which melting point does the source give for `Cc1ccc(-n2c(-c3sc(NC(=O)c4ccccc4)nc3-c3ccccc3)nc3ccccc3c2=O)cc1` here?
**A.** > 275 °C

**Q.** With `CCCCc1ncc(C(C)CC(=O)O)n1Cc1ccccc1Cl` (stereo unspecified) as the compound, how does the melting point read?
**A.** 131 to 133 °C

**Q.** With `O=C(O)C1=Cc2cc(Cl)c(Oc3ccc(Cl)cc3)cc2OC1C(F)(F)F` (stereo unspecified) as the compound, how does the melting point read?
**A.** 205 to 206 °C

**Q.** Which melting point does the source give for `CC(C)(C)[Si](C)(C)O[C@@H]1C=CO[C@H](CO)[C@H]1O` here?
**A.** 55 to 56 °C

**Q.** With `Oc1ccc2ccc(F)c(F)c2c1F` as the compound, how does the melting point read?
**A.** 91 °C

**Q.** With `COc1ccc(-c2cc(=Nc3c(C)cc(C)cc3C)n(C)c(=O)n2CC(=O)O)cc1OC` as the compound, how does the melting point read?
**A.** 148 to 150 °C

**Q.** With `CC(=O)Oc1ccc(-n2cc(C(=O)OC3CCc4ccccc43)c(=O)cc2-c2cc3ccccc3s2)cc1` (stereo unspecified) as the compound, how does the melting point read?
**A.** 234 to 236 °C

**Q.** For `O=C(O)COc1cc2cc(C3CCCCC3)sc2c(Cl)c1Cl`, which melting point is on record?
**A.** 167 to 168 °C

**Q.** Which melting point does the source give for `O=C(CS(=O)Cc1ccc(Cl)c(Cl)c1)NO` (stereo unspecified) here?
**A.** 191 to 192 °C

**Q.** For `CC(C)(C)c1cc(C(c2ccc([N+](=O)[O-])cc2)N2CCCCC2)cc(C(C)(C)C)c1O` (stereo unspecified), which melting point is on record?
**A.** 147 to 148 °C

**Q.** For `O=C(O)C1=Cc2cc(-c3ccc(Cl)cc3)ccc2OCC1`, which melting point is on record?
**A.** 263 to 264 °C

**Q.** With `CN1CC(C(=O)N(C)Cc2ccc(C(F)(F)F)cc2)=C(O)C1=O` as the compound, how does the melting point read?
**A.** 126 to 128 °C

**Q.** Which melting point does the source give for `C=CCNc1nc(NC(=O)C(C)(C)C)c2scc(C)c2n1` here?
**A.** 88 to 89 °C

**Q.** For `NC(=O)Cn1c(-c2ccc(Cl)cc2)nc2cccnc21`, which melting point is on record?
**A.** 270 to 271 °C

**Q.** Which melting point does the source give for `Cc1ccc(Oc2ccc([N+](=O)[O-])cc2-c2ncon2)c(O)c1` here?
**A.** 159 to 160 °C

**Q.** For `Clc1ccc(-c2cc(C3CCN(CC4CC4)CC3)n[nH]2)cc1`, which melting point is on record?
**A.** 176 to 178 °C

**Q.** For `Cc1c(C=O)c2cc(Br)ccc2n1-c1ccc(O)cc1`, which melting point is on record?
**A.** > 250 °C

**Q.** For `O=S1(=O)NC(C2CCCCC2)Nc2ccc(S(=O)(=O)c3ccccc3)cc21` (stereo unspecified), which melting point is on record?
**A.** 243 to 245 °C

**Q.** For `COC(=O)c1ccc(CNC(=O)c2[nH]c(-c3cccs3)cc2-c2ccc(F)cc2)nc1`, which melting point is on record?
**A.** 174 to 176 °C

**Q.** For `O=c1[nH]c2ccc(Cl)cc2n1CC1CCCCC1`, which melting point is on record?
**A.** 62 °C

**Q.** For `CSc1nc(O)nn1C`, which melting point is on record?
**A.** 128 to 130 °C
